Among the data in PubChem BioAssay AID1552 (Sanford-Burnham Center for Chemical Genomics, 2009) are Kd values, retold here.

This assay concerns the target Ubiquitin-conjugating enzyme E2 N (Homo sapiens) (UniProt P61088). The assay is described as follows: UBE2N binders by NMR, biophysical, purified protein (AID 1552). The note with it: NMR binding to purified UBE2N.

The source made the active and inactive calls. The rule behind the calls is not given here.

Ubiquitin-conjugating enzyme E2 N (Homo sapiens), sequence (P61088 whole entry, looked up): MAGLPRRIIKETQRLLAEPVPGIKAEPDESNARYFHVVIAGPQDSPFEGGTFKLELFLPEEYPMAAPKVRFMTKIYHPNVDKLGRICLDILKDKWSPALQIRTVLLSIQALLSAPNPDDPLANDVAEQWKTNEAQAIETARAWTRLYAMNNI

Broadly, the Kd is the constant that tells how readily two partners part at equilibrium. Regarding `Cc1cc(OC(=O)c2ccco2)c([N+](=O)[O-])c(=O)[nH]1`, the Kd was > 4 mM (inactive).

Turning to `Cc1cc(C)n2c(SCc3c(C)noc3C)nnc2n1`, the Kd is > 4 mM (inactive).

Turning to `Cc1ccc(N2C(=O)CC(=O)NC2=O)cc1`, the Kd is > 4 mM (inactive).

As for `Cc1cc(N)no1`, the Kd was > 4 mM (inactive).

Take `CC1C[C@H]2CC(=O)[C@H]3CCCN4CCC[C@H]2[C@]34C1` (stereo partly drawn): the Kd was > 4 mM (inactive).

As for `Cc1cc(=O)n2ccc(CN3CCOCC3)c(O)c2n1`, the Kd was > 4 mM (inactive).

For `O=P(O)(Cc1ccccc1)c1ccccc1`, the Kd is > 4 mM (inactive).

Consider `Nc1cc(=O)[nH]c(=O)n1-c1ccccc1`, for which the Kd was > 4 mM (inactive).

With `O=C1c2ccc(F)cc2C(=O)N1CO`, the Kd is > 4 mM (inactive).

Consider `O=C(O)c1ccc(NCc2cccnc2)cc1`, for which the Kd is > 4 mM (inactive).

Take `OC1COCc2nc3ccccc3n2C1` (stereo not drawn): the Kd is > 4 mM (inactive).

Regarding `CCOC(=O)C(C)c1n[nH]c(=O)c2ccccc12` (stereo not drawn), the Kd is > 4 mM (inactive).

Consider `CN(C(=O)NC1CCS(=O)(=O)C1)C1CCCCC1` (stereo not drawn), for which the Kd is > 4 mM (inactive).

Consider `C=C1C2CC[C@@]3(C)[C@H](c4ccoc4)OC(=O)C[C@]13O[C@H]1CC(=O)C(C)(C)[C@H](C(O)C(=O)OC)[C@@]21C` (stereo partly drawn), for which the Kd was > 4 mM (inactive).

As to `O=c1[nH]cc(CN2CCOCC2)c(=O)[nH]1`, the Kd was > 4 mM (inactive).

Turning to `CC(=O)O[C@@H]1CC2C(C)(C)CCC(=O)[C@]2(C)C2CC[C@@]3(C)[C@H](c4ccoc4)OC(=O)C4OC43[C@@]21C` (stereo partly drawn), the Kd was > 4 mM (inactive).

In the case of `NC(=O)c1c(Cl)nsc1-c1ccccc1Cl`, the Kd was > 4 mM (inactive).

As to `Cc1cc(O)c2c(c1O)C(=O)c1c(O)cc(C)c(O)c1C2=O`, the Kd is > 4 mM (inactive).

Regarding `Nc1[nH]c(=S)ncc1S(=O)(=O)c1ccccc1`, the Kd was > 4 mM (inactive).

Regarding `CC(=O)c1c(C)nc(-c2ccc(Cl)cc2Cl)n1O`, the Kd is > 4 mM (inactive).

Consider `Cc1sc2nc3n(c(=O)c2c1C)CCCS3`, for which the Kd was > 4 mM (inactive).

Turning to `COC(=O)c1ccc(N2CCOCC2)nc1`, the Kd is > 4 mM (inactive).

For the molecule `CC(=O)Oc1c2c(c(CC=C(C)C)c3c1C(=O)C1=C[C@@H]4CC5C(C)(C)OC(C/C=C(\C)C(=O)O)(C4=O)[C@@]15O3)OC(C)(CCC=C(C)C)C=C2` (stereo partly drawn), the Kd is > 4 mM (inactive).

Regarding `c1ccc2nc3c(nc2c1)CCc1nonc1-3`, the Kd is > 4 mM (inactive).

On to `O=C(c1ccncc1)N1CCN(C(=O)c2ccco2)CC1`, for which the Kd is > 4 mM (inactive).

Turning to `OCCN1CCN(C(=S)c2ccc(Cl)cc2)CC1`, the Kd is > 4 mM (inactive).

Take `O=C1CN2C(=N1)N(Cc1ccccc1)c1ccccc12`: the Kd was > 4 mM (inactive).

On to `Nc1ccc2sccc2c1`, for which the Kd is > 4 mM (inactive).

Turning to `Clc1ncc2[nH]cnc2n1`, the Kd was > 4 mM (inactive).

With `C=CCc1ccc(O)c(OC)c1`, the Kd was > 4 mM (inactive).

As for `COn1c(=O)c(-c2ccco2)[n+]([O-])c2ccccc21`, the Kd was > 4 mM (inactive).

`Cc1ccc(C)c(S(=O)(=O)NCc2cccnc2)c1`: the Kd was > 4 mM (inactive).

With `CCc1ccc2oc(-c3cc(N)cc(C)c3O)nc2c1`, the Kd is > 4 mM (inactive).

Consider `COc1ccc(CN2CCOCC2)c(C)c1C`, for which the Kd is > 4 mM (inactive).

`Cc1cc(=O)[nH]c2ccccc12`: the Kd was > 4 mM (inactive).

Turning to `Nc1cc(C(=O)O)ccc1N1CCCCCC1`, the Kd was > 4 mM (inactive).

For the molecule `CC1(C)Cc2c(C#N)c(N)n(-c3ccccc3)c(=O)c2CO1`, the Kd is > 4 mM (inactive).

`Cc1cc(C(=O)Nc2ccccn2)no1`: the Kd is > 4 mM (inactive).

Regarding `[O-][n+]1onc2c1CCc1c-2nn(-c2ccccc2)[n+]1[O-]`, the Kd was > 4 mM (inactive).

With `O=C(N1CCOCC1)N1CCN(c2ccccn2)CC1`, the Kd was > 4 mM (inactive).

As for `O=C(O)C1CC(=O)N(C2Cc3ccccc3C2)C1` (stereo not drawn), the Kd was > 4 mM (inactive).

For the molecule `Cc1nc2ccccc2c(=O)n1/N=C/c1ccco1`, the Kd was > 4 mM (inactive).

Consider `CCCCn1c(S(=O)(=O)O)nc2ccccc21`, for which the Kd is > 4 mM (inactive).

Regarding `Cc1nnc(SCc2ccon2)n1-c1ccccc1`, the Kd was > 4 mM (inactive).

Regarding `COc1cc2c(cc1OC)C1=C(C#N)CCC(=O)N1CC2`, the Kd was > 4 mM (inactive).

Take `OCc1ccc(-c2ccccn2)s1`: the Kd is > 4 mM (inactive).

Regarding `CCc1c(C(=O)N2CCOCC2)csc1C`, the Kd was > 4 mM (inactive).

As to `COc1cc(-c2nnc(NC(C)=O)o2)cc(OC)c1OC`, the Kd is > 4 mM (inactive).

For the molecule `O=C1CC(=O)N(Cc2ccco2)C(=S)N1`, the Kd was > 4 mM (inactive).

For `Oc1ccc([C@H]2Oc3cc(O)cc(O)c3C[C@H]2O)cc1`, the Kd is > 4 mM (inactive).

As to `Cc1ccc(-n2ncc(C#N)c2/N=C/N(C)C)cc1`, the Kd was > 4 mM (inactive).

Consider `COc1ccc(-c2c(O)c3c(OC)c4c(cc3oc2=O)OC(C)(C)CC4)cc1`, for which the Kd was > 4 mM (inactive).

Regarding `O=C(O)C1CSC(c2ccco2)N1` (stereo not drawn), the Kd was > 4 mM (inactive).

As to `COC1=CC23CCCN2CCc2cc4c(cc2C3C1O)OCO4` (stereo not drawn), the Kd was > 4 mM (inactive).

On to `COc1ccc2cc1Oc1ccc(cc1)C[C@H]1c3cc(c(OC)cc3CCN1C)Oc1c(OC)c(OC)cc3c1[C@H](C2)N(C)CC3`, for which the Kd was > 4 mM (inactive).

Turning to `Cc1cc(C(=O)N2CCN(c3ncccn3)CC2)c(C)o1`, the Kd was > 4 mM (inactive).

With `C/C=C(\C)c1nnc(NC(=O)c2ccco2)s1`, the Kd is > 4 mM (inactive).

`O=C(NC1=NCCS1)c1cccc(F)c1`: the Kd was > 4 mM (inactive).

Take `O=C(NCc1cccc(Cl)c1)c1ccco1`: the Kd is > 4 mM (inactive).

In the case of `NC(=O)c1ccc(C(N)=O)c(-c2ccccc2)c1`, the Kd is > 4 mM (inactive).

For `C=CC(C1=CC(=O)C=CC1=O)c1ccccc1` (stereo not drawn), the Kd is > 4 mM (inactive).

With `C/C=C(/C)C(=O)O[C@@H]1[C@H](OC(C)=O)[C@@]2(CO)C(CC1(C)C)C1=CCC3[C@@]4(C)CC[C@H](O[C@@H]5O[C@H](C(=O)O)[C@@H](O[C@@H]6O[C@H](CO)[C@@H](O)[C@H](O)[C@H]6O)[C@H](O)[C@H]5O[C@@H]5O[C@H](CO)[C@@H](O)[C@H](O)[C@H]5O)[C@](C)(CO)C4CC[C@@]3(C)[C@]1(C)C[C@H]2O` (stereo partly drawn), the Kd is > 4 mM (inactive).

On to `O=C(NC1CCS(=O)(=O)C1)c1cccs1` (stereo not drawn), for which the Kd was > 4 mM (inactive).

Turning to `OCc1ccc(OC(F)(F)F)cc1`, the Kd is > 4 mM (inactive).

With `CC(=O)Oc1ccc2c(c1)c(C(C)=O)c(C)n2C`, the Kd is > 4 mM (inactive).

For the molecule `Cc1csc(NC(=O)c2cccs2)n1`, the Kd is > 4 mM (inactive).

`O=C(O)CCc1nc2ccccc2[nH]c1=O`: the Kd is > 4 mM (inactive).

Consider `COC(=O)c1cc(C)on1`, for which the Kd was > 4 mM (inactive).

Consider `c1ccc(-c2nnc3sc(-c4ccncc4)nn23)cc1`, for which the Kd is > 4 mM (inactive).

For `Nc1ccccc1N1CCOCC1`, the Kd is > 4 mM (inactive).

For `NCCNC(=S)Nc1ccccc1`, the Kd is > 4 mM (inactive).

For `OCc1cc2ccccc2o1`, the Kd is > 4 mM (inactive).

In the case of `Cc1ccc(C(=O)N2CCOCC2)cc1Cl`, the Kd was > 4 mM (inactive).

For `O=C(O)c1ccc(-n2cccn2)cc1`, the Kd was > 4 mM (inactive).

`C=C(C)[C@H]1COc2cc3oc(=O)ccc3cc2O1`: the Kd was > 4 mM (inactive).

In the case of `CC(C)CNc1cc(=O)n(C)c(=O)n1C`, the Kd was > 4 mM (inactive).

For the molecule `Clc1ccccc1-c1nc(-c2cccnc2)no1`, the Kd was > 4 mM (inactive).

For `CC(C)c1c(O)ccc2c1CCC1C(C)(C)CCC[C@]21C` (stereo partly drawn), the Kd was > 4 mM (inactive).

On to `O=C1CNC(=O)N1Cc1ccc(F)cc1`, for which the Kd is > 4 mM (inactive).

For `CCn1nnc(NC(=O)c2cc3ccccc3o2)n1`, the Kd was > 4 mM (inactive).

Turning to `CN1CCN(CC(O)c2ccccc2)CC1` (stereo not drawn), the Kd was > 4 mM (inactive).

For `COC(=O)c1cc2ccccc2cn1`, the Kd is > 4 mM (inactive).

In the case of `O=C1N=c2ccccc2=C1c1[nH]c(=S)[nH]c1O`, the Kd was > 4 mM (inactive).

Consider `O=c1oc2ccccc2cc1O`, for which the Kd is > 4 mM (inactive).

In the case of `O=C1NC(=O)C(c2ccccc2)C(=O)N1`, the Kd is > 4 mM (inactive).

On to `O=C1C2C3C=CC(C3)C2C(=O)N1c1nccs1` (stereo not drawn), for which the Kd was > 4 mM (inactive).

Take `Cn1ccc(NC(=S)Nc2cccc([N+](=O)[O-])c2)n1`: the Kd was > 4 mM (inactive).

Consider `COC(=O)CC1C(C)(C)C(OC(C)=O)[C@@H]2[C@@H](OC(C)=O)[C@]34O[C@@]2(O)[C@]1(C)C3CC[C@]1(C)C4=CC(=O)O[C@H]1c1ccoc1` (stereo partly drawn), for which the Kd is > 4 mM (inactive).

Regarding `Cc1ccc(SCc2nc(-c3ccncc3)no2)cc1`, the Kd is > 4 mM (inactive).

Consider `CC1CCC2(OC1)OC1CC3C4CC[C@H]5C[C@@H](O)CC[C@]5(C)C4CC(=O)[C@]3(C)C1C2C` (stereo partly drawn), for which the Kd was > 4 mM (inactive).

Take `O=C(O)c1ccc(CN2CCOCC2)cc1`: the Kd is > 4 mM (inactive).

Consider `Cc1nnc(Nc2ccc(S(N)(=O)=O)cc2)[nH]c1=O`, for which the Kd was > 4 mM (inactive).

Turning to `C[N+](C)(C)CC(=O)[O-]`, the Kd was > 4 mM (inactive).

On to `COc1ccc(C[C@H]2NC[C@H](O)[C@H]2OC(C)=O)cc1`, for which the Kd was > 4 mM (inactive).

For the molecule `O=C(O)c1cccnc1N1CCCC1`, the Kd is > 4 mM (inactive).

In the case of `CN(C)S(=O)(=O)NCc1ccc2c(c1)OCO2`, the Kd was > 4 mM (inactive).

For the molecule `C[C@H]1[C@H](C)CC[C@]2(CO)CC[C@]3(C)C(=CCC4[C@@]5(C)CC[C@H](O)C(C)(C)C5CC[C@]43C)[C@H]12` (stereo partly drawn), the Kd is > 4 mM (inactive).

In the case of `NC(=O)C1CCN(CN2C(=O)c3ccccc3C2=O)CC1`, the Kd was > 4 mM (inactive).
